# Results: PubChem BioAssay (NCI)
#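 Exposure lasted 48 hours, with cells grown in 96-well plates and compounds tested at five concentrations. GI50 is the concentration that inhibits growth by half. TGI is the concentration that stops growth completely.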
# Tests used:
# Assay in all cases: NCI-60 cell line screen, 48 h
# OVCAR-3 ovarian = system: OVCAR-3 ovarian
# MOLT-4 leukemia = system: MOLT-4 leukemia
# MALME-3M melanoma = system: MALME-3M melanoma
# COLO 205 colon = system: COLO 205 colon
# NCI-H226 lung = system: NCI-H226 lung
# NCI/ADR-RES ovarian = system: NCI/ADR-RES ovarian
# SW-620 colon = system: SW-620 colon
# ACHN renal = system: ACHN renal
# OVCAR-8 ovarian = system: OVCAR-8 ovarian
# RXF 393 renal = system: RXF 393 renal
# MDA-MB-231 breast = system: MDA-MB-231 breast
# A498 renal = system: A498 renal
# NCI-H460 lung = system: NCI-H460 lung
# SK-MEL-5 melanoma = system: SK-MEL-5 melanoma
# HOP-92 NSCLC = system: HOP-92 NSCLC
# CAKI-1 renal = system: CAKI-1 renal
# EKVX NSCLC = system: EKVX NSCLC
# IGROV1 ovarian = system: IGROV1 ovarian
# SK-MEL-28 melanoma = system: SK-MEL-28 melanoma
# SN12C renal = system: SN12C renal
# HCC-2998 colon = system: HCC-2998 colon
# SNB-19 CNS = system: SNB-19 CNS
# SK-OV-3 ovarian = system: SK-OV-3 ovarian
# SF-295 CNS = system: SF-295 CNS
# SK-MEL-2 melanoma = system: SK-MEL-2 melanoma
# HS 578T breast = system: HS 578T breast
# SR leukemia = system: SR leukemia
# LOX IMVI melanoma = system: LOX IMVI melanoma
# OVCAR-5 ovarian = system: OVCAR-5 ovarian
# MDA-MB-435 = system: MDA-MB-435
# NCI-H23 lung = system: NCI-H23 lung
# HCT-15 colon = system: HCT-15 colon
# SNB-75 CNS = system: SNB-75 CNS
# SF-539 CNS = system: SF-539 CNS
# KM12 colon = system: KM12 colon
# U251 CNS = system: U251 CNS
# HCT-116 colon = system: HCT-116 colon
# PC-3 prostate = system: PC-3 prostate
# A549 NSCLC = system: A549 NSCLC
# TK-10 renal = system: TK-10 renal
# OVCAR-4 ovarian = system: OVCAR-4 ovarian
# K-562 leukemia = system: K-562 leukemia
# CCRF-CEM leukemia = system: CCRF-CEM leukemia
# SF-268 CNS = system: SF-268 CNS
# MDA-MB-468 breast = system: MDA-MB-468 breast
# RPMI-8226 leukemia = system: RPMI-8226 leukemia
# UACC-62 melanoma = system: UACC-62 melanoma
# UO-31 renal = system: UO-31 renal
# MCF7 breast = system: MCF7 breast
# DU-145 prostate = system: DU-145 prostate
# 786-0 renal = system: 786-0 renal
# M14 melanoma = system: M14 melanoma
# T-47D breast = system: T-47D breast
# HT29 colon = system: HT29 colon
# HL-60(TB) leukemia = system: HL-60(TB) leukemia
# BT-549 breast = system: BT-549 breast
# HOP-62 NSCLC = system: HOP-62 NSCLC
# NCI-H522 lung = system: NCI-H522 lung
# UACC-257 melanoma = system: UACC-257 melanoma
smiles,measurement,setting,value
O=C(N/N=C/c1ccoc1)c1[nH]c2ccc(Br)cc2c1-c1ccccc1,GI50,OVCAR-3 ovarian,0.257 µM
same,TGI,OVCAR-3 ovarian,11.5 µM
same,GI50,MOLT-4 leukemia,0.405 µM
same,TGI,MOLT-4 leukemia,21 µM
same,GI50,MALME-3M melanoma,5.25 µM
same,TGI,MALME-3M melanoma,21.4 µM
same,GI50,COLO 205 colon,0.43 µM
same,TGI,COLO 205 colon,3.14 µM
same,GI50,NCI-H226 lung,3.04 µM
same,TGI,NCI-H226 lung,16.2 µM
same,GI50,NCI/ADR-RES ovarian,0.231 µM
same,TGI,NCI/ADR-RES ovarian,1.31 µM
same,GI50,SW-620 colon,0.297 µM
same,TGI,SW-620 colon,15.6 µM
same,GI50,ACHN renal,0.79 µM
same,TGI,ACHN renal,14.4 µM
same,GI50,OVCAR-8 ovarian,0.369 µM
same,TGI,OVCAR-8 ovarian,5.93 µM
same,GI50,RXF 393 renal,0.455 µM
same,TGI,RXF 393 renal,19.8 µM
same,GI50,MDA-MB-231 breast,0.906 µM
same,TGI,MDA-MB-231 breast,12.3 µM
same,GI50,A498 renal,15.6 µM
same,TGI,A498 renal,30.2 µM
same,GI50,NCI-H460 lung,0.252 µM
same,TGI,NCI-H460 lung,10.7 µM
same,GI50,SK-MEL-5 melanoma,0.295 µM
same,TGI,SK-MEL-5 melanoma,1.67 µM
same,GI50,HOP-92 NSCLC,0.989 µM
same,TGI,HOP-92 NSCLC,13.3 µM
same,GI50,CAKI-1 renal,0.537 µM
same,TGI,CAKI-1 renal,15.4 µM
same,GI50,EKVX NSCLC,1.03 µM
same,TGI,EKVX NSCLC,13.6 µM
same,GI50,IGROV1 ovarian,1.25 µM
same,TGI,IGROV1 ovarian,13 µM
same,GI50,SK-MEL-28 melanoma,2.75 µM
same,TGI,SK-MEL-28 melanoma,19.9 µM
same,GI50,SN12C renal,0.485 µM
same,TGI,SN12C renal,12.1 µM
same,GI50,HCC-2998 colon,0.755 µM
same,TGI,HCC-2998 colon,11.6 µM
same,GI50,SNB-19 CNS,3.15 µM
same,TGI,SNB-19 CNS,20 µM
same,GI50,SK-OV-3 ovarian,3.54 µM
same,TGI,SK-OV-3 ovarian,18.4 µM
same,GI50,SF-295 CNS,0.289 µM
same,TGI,SF-295 CNS,13 µM
same,GI50,SK-MEL-2 melanoma,0.954 µM
same,TGI,SK-MEL-2 melanoma,16.4 µM
same,GI50,HS 578T breast,0.279 µM
same,TGI,HS 578T breast,13 µM
same,GI50,SR leukemia,0.492 µM
same,TGI,SR leukemia,36.9 µM
same,GI50,LOX IMVI melanoma,0.265 µM
same,TGI,LOX IMVI melanoma,13.7 µM
same,GI50,OVCAR-5 ovarian,0.745 µM
same,TGI,OVCAR-5 ovarian,14.6 µM
same,GI50,MDA-MB-435,0.162 µM
same,TGI,MDA-MB-435,0.827 µM
same,GI50,NCI-H23 lung,0.728 µM
same,TGI,NCI-H23 lung,14.2 µM
same,GI50,HCT-15 colon,0.328 µM
same,TGI,HCT-15 colon,11.9 µM
same,GI50,SNB-75 CNS,0.299 µM
same,TGI,SNB-75 CNS,13.2 µM
same,GI50,SF-539 CNS,0.246 µM
same,TGI,SF-539 CNS,1.08 µM
same,GI50,KM12 colon,0.461 µM
same,TGI,KM12 colon,13.5 µM
same,GI50,U251 CNS,1.16 µM
same,TGI,U251 CNS,15.6 µM
same,GI50,HCT-116 colon,0.166 µM
same,TGI,HCT-116 colon,11.1 µM
same,GI50,PC-3 prostate,0.436 µM
same,TGI,PC-3 prostate,16 µM
same,GI50,A549 NSCLC,1.13 µM
same,TGI,A549 NSCLC,14.7 µM
same,GI50,TK-10 renal,7.96 µM
same,TGI,TK-10 renal,24 µM
same,GI50,OVCAR-4 ovarian,5.23 µM
same,TGI,OVCAR-4 ovarian,20.9 µM
same,GI50,K-562 leukemia,0.197 µM
same,TGI,K-562 leukemia,> 56.2 µM
same,GI50,CCRF-CEM leukemia,0.227 µM
same,TGI,CCRF-CEM leukemia,15.3 µM
same,GI50,SF-268 CNS,1.2 µM
same,TGI,SF-268 CNS,14.5 µM
same,GI50,MDA-MB-468 breast,0.346 µM
same,TGI,MDA-MB-468 breast,3.88 µM
same,GI50,RPMI-8226 leukemia,0.36 µM
same,TGI,RPMI-8226 leukemia,33.2 µM
same,GI50,UACC-62 melanoma,0.355 µM
same,TGI,UACC-62 melanoma,15.8 µM
same,GI50,UO-31 renal,1.01 µM
same,TGI,UO-31 renal,15.2 µM
same,GI50,MCF7 breast,0.21 µM
same,TGI,MCF7 breast,12.7 µM
same,GI50,DU-145 prostate,0.568 µM
same,TGI,DU-145 prostate,12.4 µM
same,GI50,786-0 renal,0.665 µM
same,TGI,786-0 renal,14.4 µM
same,GI50,M14 melanoma,0.226 µM
same,TGI,M14 melanoma,14.7 µM
same,GI50,T-47D breast,3.77 µM
same,TGI,T-47D breast,32.5 µM
same,GI50,HT29 colon,0.329 µM
same,TGI,HT29 colon,2.92 µM
same,GI50,HL-60(TB) leukemia,0.205 µM
same,TGI,HL-60(TB) leukemia,0.852 µM
same,GI50,BT-549 breast,0.416 µM
same,TGI,BT-549 breast,3.12 µM
same,GI50,HOP-62 NSCLC,0.524 µM
same,TGI,HOP-62 NSCLC,17.6 µM
same,GI50,NCI-H522 lung,0.208 µM
same,TGI,NCI-H522 lung,1 µM
same,GI50,UACC-257 melanoma,7.66 µM
same,TGI,UACC-257 melanoma,23.3 µM
